Read-outs that look alike come from different tables or passages of the source.
Experiments:
[1] = molecular target: T1, HCV NS5B RdRp genotype 1b (Hepatitis C virus genotype 1b, UniProt Q9WMX2); experiment: Standard HCV NS5B RdRp enzyme assay; format: biochemical; conditions: HCV NS5B RdRp genotype 1b, read-out: IC50
T1 construct: The protein was expressed with an 18 amino acid C-terminal truncation to enhance the solubility; made in house; host or cells: E. coli BL21(DE3), pET21a vector
In short: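 C-terminally truncated (18 aa) genotype 1b NS5B from E. coli, 28 nM, with 6 nM polyA template, 180 nM biotinylated oligo-dT12 primer and 3H-UTP (0.29 μM total UTP). Hepes pH 7.5 buffer with 2% DMSO; 60 min at 30° C. EDTA stop, SPA read-out; IC50 from seven concentrations by four-parameter fit.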

HCV replicon cells = experiment: HCV replicon FRET / luciferase assay (96-well plates); format: cell-based; conditions: Hepatitis C virus, HCV replicon, read-out: EC50
In short: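 Trypsinized replicon cells were seeded with compound titrations and incubated at 37 °C for various times. Alamar blue was added to gauge toxicity. Plates were then rinsed and either lysed with FRET peptide reagent for kinetic fluorescence reading or switched to phenol red-free DMEM for luciferase measurement.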

[2] = untitled table after Table 1b, values without asterisk

T1 sequence (Q9WMX2 2420-2992): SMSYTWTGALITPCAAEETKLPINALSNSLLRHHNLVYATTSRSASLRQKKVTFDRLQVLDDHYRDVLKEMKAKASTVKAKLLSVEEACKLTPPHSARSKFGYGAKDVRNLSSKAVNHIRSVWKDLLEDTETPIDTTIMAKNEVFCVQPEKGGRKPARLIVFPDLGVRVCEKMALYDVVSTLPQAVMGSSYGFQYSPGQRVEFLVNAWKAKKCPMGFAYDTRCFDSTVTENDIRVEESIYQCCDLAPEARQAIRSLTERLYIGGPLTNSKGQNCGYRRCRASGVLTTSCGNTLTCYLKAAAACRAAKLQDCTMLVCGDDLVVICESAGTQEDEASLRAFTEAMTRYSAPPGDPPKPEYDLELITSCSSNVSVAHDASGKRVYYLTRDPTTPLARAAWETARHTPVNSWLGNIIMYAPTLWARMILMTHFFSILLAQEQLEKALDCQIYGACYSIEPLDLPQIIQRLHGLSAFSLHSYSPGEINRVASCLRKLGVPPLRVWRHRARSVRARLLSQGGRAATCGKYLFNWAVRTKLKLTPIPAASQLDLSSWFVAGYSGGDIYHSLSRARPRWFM

Structure (SMILES)	IC50 ([1]; Table 1a) [nM]	EC50 (HCV replicon cells; Table 1a) [nM]	IC50 ([1]; Table 1b) [nM]	EC50 (HCV replicon cells; Table 1b) [nM]	further results
CNC(=O)c1c(-c2ccc(F)cc2)oc2ccc(-c3cccc(C(=O)N(C)Cc4ccccc4)c3)cc12	250 to 1000	250 to 1000			
CNC(=O)c1c(-c2ccc(F)cc2)oc2ccc(-c3cc(OCC4CC4)cc(C(=O)NCC(C)C)c3)cc12			> 10000	250 to 1000	
CNC(=O)c1c(-c2ccc(F)cc2)oc2ccc(-c3cccc(C(=O)NC4CC4)c3)cc12	250 to 1000	250 to 1000			
CNC(=O)c1c(-c2ccc(F)cc2)oc2ccc(-c3ccc(OCC(C)C)cc3)cc12	> 10000	> 400			
CNC(=O)c1c(-c2ccc(F)cc2)oc2ccc(-c3cccc(C(=O)N4CCC4)c3)cc12	250 to 1000	250 to 1000			
CCNC(=O)c1cccc(-c2ccc(-c3ccc4oc(-c5ccc(F)cc5)c(C(=O)NC)c4c3)cc2C(=O)NCC(C)C)c1			< 250	< 250	
CNC(=O)c1c(-c2ccc(F)cc2)oc2ccc(-c3cccc(C(=O)N[C@H](CO)C(=O)OC)c3)cc12	250 to 1000	1000 to 10000			
C=CCOC(=O)[C@H](C)NC(=O)c1cccc(-c2ccc3oc(-c4ccc(F)cc4)c(C(=O)NC)c3c2)c1	< 250	> 10000			
CNC(=O)c1c(-c2ccc(F)cc2)oc2ccc(-c3ccc(C(=O)N4CCCC4)cc3)cc12	1000 to 10000	1000 to 10000			
CC(C)Oc1cc2c(-c3ncn[nH]3)c(-c3ccc(F)cc3)oc2cc1N(C)S(C)(=O)=O	250 to 1000	1000 to 10000			
CNC(=O)c1c(-c2ccc(F)cc2)oc2ccc(-c3cccc(C(=O)N(C)CCC#N)c3)cc12 [drawing 616]					IC50 ([1]; untitled table after Table 1b): 800 nM; EC50 (HCV replicon cells; [2]): 1380 nM
C#CC(C)(C)NC(=O)c1cccc(-c2ccc3oc(-c4ccc(F)cc4)c(C(=O)NC)c3c2)c1	< 250	< 250			
CNC(=O)c1c(-c2ccc(F)cc2)oc2ccc(-c3cc(OCc4nnc(C)o4)cc(C(=O)NCC(C)C)c3)cc12			< 250	1000 to 10000	
CNC(=O)c1c(-c2ccc(F)cc2)oc2cc(N)c(-c3cccc(C(=O)NC4(c5ccccc5)CC4)c3)cc12	< 250	< 250			
CNC(=O)c1c(-c2ccc(F)cc2)oc2ccc(-c3cccc(C(=O)N[C@H](C(N)=O)C(C)C)c3)cc12	250 to 1000	1000 to 10000			
CNC(=O)c1c(-c2ccc(F)cc2)oc2ccc(-c3cc(C(=O)NC4(c5ccccn5)CC4)c(OC)cc3Cl)cc12			< 250	< 250	
CNC(=O)c1c(-c2ccc(F)cc2)oc2ccc(-c3cc(C(=O)NC4(c5ccccc5)CC4)ccc3C)cc12 [drawing 362]			< 250	< 250	
CNC(=O)c1c(-c2ccc(F)cc2)oc2ccc(-c3ccc(-c4ccc5cc[nH]c5c4)c(C(=O)NCC(C)C)c3)cc12			250 to 1000	< 250	
CNC(=O)c1c(-c2ccc(F)cc2)oc2ccc(-c3cc(NC(=O)OC(C)(C)C)cc(C(=O)NCC(C)C)c3)cc12			250 to 1000	< 250	
CCCCCNC(=O)c1cccc(-c2ccc3oc(-c4ccc(F)cc4)c(C(=O)NC)c3c2)c1	< 250	< 250			
CNC(=O)c1c(-c2ccc(F)cc2)oc2ccc(-c3ccc(-c4cccnc4C)c(C(=O)NCC(C)C)c3)cc12			< 250	< 250	
CNC(=O)c1c(-c2ccc(F)cc2)oc2ccc(-c3cn[nH]c3)cc12	> 10000	250 to 1000			
CNC(=O)c1c(-c2ccc(F)cc2)oc2ccc(-c3cccc(/C=C/C(=O)O)c3)cc12	250 to 1000	1000 to 10000			
CNC(=O)c1c(-c2ccc(F)cc2)oc2cc(N)c(-c3cc(C(=O)NC4(c5ccccc5)CC4)ccc3OC)cc12			< 250	< 250	
CNC(=O)c1c(-c2ccc(F)cc2)oc2ccc(-c3ccc(C(=O)N(C)CCC#N)cc3)cc12	1000 to 10000	> 10000			

Structure (SMILES)	IC50 ([1]; Table 1a) [nM]	EC50 (HCV replicon cells; Table 1a) [nM]	IC50 ([1]; Table 1b) [nM]	EC50 (HCV replicon cells; Table 1b) [nM]	further results
CNC(=O)c1c(-c2ccc(F)cc2)oc2ccc(-c3cccc(C(=O)NC(C)(C)c4ccccc4)c3)c([N+](=O)[O-])c12	< 250	< 250			
CNC(=O)c1c(-c2ccc(F)cc2)oc2ccc(-c3cc(C(=O)NCC(C)C)ccc3OCC3CCNC3)cc12 (stereo not shown)			< 250	< 250	
CNC(=O)c1c(-c2ccc(F)cc2)oc2ccc(-c3cc(C(=O)NC4(c5ccccc5Cl)CC4)ccc3Cl)cc12			250 to 1000	< 250	
CNC(=O)c1c(-c2ccc(F)cc2)oc2ccc(-c3cc(C(=O)NCC(C)C)ccc3OCc3ccncc3)cc12			< 250	< 250	
CNC(=O)c1c(-c2ccc(F)cc2)oc2ccc(-c3cc(CO)ccc3Cl)cc12	> 10000	1000 to 10000			
CCCNC(=O)c1cccc(-c2ccc3oc(-c4ccc(F)cc4)c(C(=O)NC)c3c2)c1	< 250	< 250			
CNC(=O)c1c(-c2ccccc2)oc2ccc(-c3cc(C(=O)NC4(c5nnc(-c6ccccc6)[nH]5)CC4)ccc3C)cc12			< 250	< 250	
CNC(=O)c1c(-c2ccc(F)cc2)oc2ccc(-c3cc(C(=O)NC4(c5ccccn5)CC4)c(OCCC(N)=O)cc3C)cc12					IC50 ([1]; Table 1d (class symbols)): < 20 nM; EC50 (HCV replicon cells; 24 h, Table 1d (class symbols)): 1 to 250 nM
CNC(=O)c1c(-c2ccc(F)cc2)oc2ccc(-c3cccc(S(=O)(=O)NCc4ccccc4)c3)cc12	> 10000	> 10000			
CNC(=O)c1c(-c2ccc(F)cc2)oc2ccc(-c3cccc(C(=O)Nc4cccc(O)c4)c3)cc12	1000 to 10000	1000 to 10000			
CNC(=O)c1c(-c2ccccc2)oc2ccc(-c3cc(C(=O)NC4(c5nc(-c6ccccn6)no5)CC4)ccc3C)cc12			< 250	< 250	
CNC(=O)c1c(-c2ccc(F)cc2)oc2ccc(-c3cc(C(=O)N4CCC5(CC4)OCc4ccccc45)ccc3Cl)cc12			1000 to 10000	1000 to 10000	
CNC(=O)c1c(-c2ccc(F)cc2)oc2ccc(-c3cccc(C(=O)N[C@@H](CO)C(C)C)c3)cc12 [drawing 613]					IC50 ([1]; untitled table after Table 1b): 800 nM; EC50 (HCV replicon cells; [2]): 1250 nM
CNC(=O)c1c(-c2ccc(F)cc2)oc2ccc(-c3cc(C(=O)NC4(c5ncccn5)CC4)ccc3C)cc12 [drawing 570]			< 250	< 250	
CNC(=O)c1c(-c2ccc(F)cc2)oc2cc(N)c(-c3cccc(C(=O)NC(C)(C)c4ccccc4)c3)cc12 [drawing 94]	< 250	< 250			
CNC(=O)c1c(-c2ccc(F)cc2)oc2ccc(-c3cc(C(=O)NC4(c5nnc(-c6cccc(OC)c6)[nH]5)CC4)ccc3C)cc12			< 250	< 250	
CNC(=O)c1c(-c2ccc(F)cc2)oc2ccc(-c3cccc(C(=O)NC(C)CC(=O)O)c3)cc12 (stereo not shown)	250 to 1000	> 10000			
CNC(=O)c1c(-c2ccc(F)cc2)oc2ccc(-c3cccc(C(=O)NC(C)(C)c4ccc(F)cc4)c3)cc12	< 250	< 250			
CNC(=O)c1c(-c2ccc(F)cc2)oc2ccc(-c3cccc(C(=O)NC(C)c4ccccc4)c3)cc12 (stereo not shown)	< 250	< 250			
CNC(=O)c1c(-c2ccc(F)cc2)oc2ccc(-c3cc(C(=O)NC4(c5ncccn5)CC4)cc(F)c3C)c(F)c12 [drawing 668]					IC50 ([1]; Table 1d (class symbols)): 1 to 250 nM; EC50 (HCV replicon cells; 24 h, Table 1d (class symbols)): 1 to 250 nM
CNC(=O)c1c(-c2ccc(F)cc2)oc2ccc(-c3cccc(-c4ccnn4Cc4ccccc4)c3)cc12			< 250	< 250	
CNC(=O)c1c(-c2ccc(F)cc2)oc2ccc(-c3ccc(C(=O)N(C)Cc4cccnc4)cc3)cc12 [drawing 620]					IC50 ([1]; untitled table after Table 1b): 9920 nM; EC50 (HCV replicon cells; [2]): 15100 nM
CNC(=O)c1c(-c2ccc(F)cc2)oc2ccc(-c3cccc(C(=O)NC(C)(C)c4ccc(Cl)cc4)c3)cc12			< 250	< 250	
CNC(=O)c1c(-c2ccc(F)cc2)oc2ccc(-c3cccc(C(=O)N[C@@H](C)c4cccc(OC)c4)c3)cc12	< 250	< 250			
CNC(=O)c1c(-c2ccc(F)cc2)oc2ccc(-c3cccc(C(=O)N4CCC(C)CC4)c3)cc12	1000 to 10000	1000 to 10000			
